From US7575882B2, “Compositions and methods for identifying modulators of TRPV2” (Janssen Pharmaceutica N. V., priority 2005, dated 2009)

Molecular target: T1, rat and human TRPV2 chimera HRR (Rattus norvegicus, UniProt Q9WUD2, A110E/A257S/D189N/D73N/DEL322-322/DEL56-59/DEL67-67/E160D/E240Q/E289D/E384A/E71D/E91D/F161Y/G295D/H202G/H269S/H293L/I268T/K144R/K150Q/K353E/K51R/L151P/L192A/L245Q/L96P/M137L/M277A/N102T/N368H/N45K/N63G/P261A/P325H/P38Q/P60Y/P61R/Q129K/Q163R/Q324S/Q70P/R100S/R388L/R392K/R41G/S264I/S291R/S346A/S391P/S46F/S47A/S65G/S82N/T227S/T93A/V390I/V83A/W101K/W351C/Y323L)
T1 construct: expressed in transfected cells; host or cells: HEK293, transient, pCI-neo
T1 sequence (Q9WUD2 with tags, fused parts or gaps P38Q/R41G/N45K/S46F/S47A/K51R/DEL56-59/P60Y/P61R/N63G/S65G/DEL67-67/Q70P/E71D/D73N/S82N/V83A/E91D/T93A/L96P/R100S/W101K/N102T/A110E/Q129K/M137L/K144R/K150Q/L151P/E160D/F161Y/Q163R/D189N/L192A/H202G/T227S/E240Q/L245Q/A257S/P261A/S264I/I268T/H269S/M277A/E289D/S291R/H293L/G295D/DEL322-322/Y323L/Q324S/P325H/S346A/W351C/K353E/N368H/E384A/R388L/V390I/S391P/R392K): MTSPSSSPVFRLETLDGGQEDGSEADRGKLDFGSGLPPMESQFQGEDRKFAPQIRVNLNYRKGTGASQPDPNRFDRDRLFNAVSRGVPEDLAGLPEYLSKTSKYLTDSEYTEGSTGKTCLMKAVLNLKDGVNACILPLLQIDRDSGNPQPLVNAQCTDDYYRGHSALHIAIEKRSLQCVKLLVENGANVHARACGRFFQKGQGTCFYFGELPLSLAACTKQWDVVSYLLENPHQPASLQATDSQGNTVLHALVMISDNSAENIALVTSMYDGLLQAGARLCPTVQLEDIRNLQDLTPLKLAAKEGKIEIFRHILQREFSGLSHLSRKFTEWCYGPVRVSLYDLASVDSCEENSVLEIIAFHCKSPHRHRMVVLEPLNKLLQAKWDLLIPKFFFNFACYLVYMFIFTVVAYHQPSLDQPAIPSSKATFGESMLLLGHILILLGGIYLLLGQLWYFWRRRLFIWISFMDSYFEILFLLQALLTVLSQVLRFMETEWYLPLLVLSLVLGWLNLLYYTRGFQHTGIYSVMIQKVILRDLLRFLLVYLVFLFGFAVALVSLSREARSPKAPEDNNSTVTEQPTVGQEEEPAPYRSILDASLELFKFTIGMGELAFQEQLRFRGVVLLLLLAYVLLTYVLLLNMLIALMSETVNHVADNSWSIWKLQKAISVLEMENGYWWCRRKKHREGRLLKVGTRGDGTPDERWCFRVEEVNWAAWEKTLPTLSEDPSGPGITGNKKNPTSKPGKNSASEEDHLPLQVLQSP
Experiment: Calcium mobilization in HEK293 cells expressing TRPV2 chimera HRR
Assay type: cell-based
Details: expressed separately in HEK cells
Protocol: The deletion mutant constructs were then transfected into HEK293 cells using Fugene 6 reagent (Roche) as per the manufacturer's instructions. At 24 hours post-transfection, the cells were harvested and replated in fresh DMEM medium supplemented with 10% fetal bovine serum, 100 units/ml penicillin, and 100 μg/ml streptomycin. The cells were distributed onto poly-D-Lysine coated 96-or 384-well plates at a density of approximately 40,000 and 10,000 cells per well, respectively. At approximately 48 hours post-transfection, the medium was removed from the assay plate and replaced with Calcium 3 Dye Buffer (Molecular Devices) using the protocol available from the manufacturer. Calcium mobilization was triggered using Δ^9-THC or 2-APB or elevated temperature buffer and measured using either FLIPR or FLEX STATION instruments.
Based on the predicted topology and primary sequence features of TRPV2, TRPV2 are divided into 3 major domains: 1) the amino-terminal intracellular domain; 2) the transmembrane domain; and 3) the carboxyl-terminal intracellular domain. For a chimera, each domain can be of rat (R) or human (H) origin. Three rat and human TRPV2 chimera were constructed and tested herein. RRH (SEQ ID NO:15) was a chimera comprising rat 1-392 aa, rat 393-646 aa, and human 647-764 aa. RHR (SEQ ID NO:16) was a chimera comprising rat 1-392, human 391-646, and rat 647-761. […]

Delta-9-tetrahydrocannabinol [Δ^9-THC]
response of chimera HRR to the compound: not active
